Measured values as given in patent US11401271B2, “Fused heterocyclic compound, pyrazole-ring-containing fused heterocyclic compound, agricultural composition containing thereof, and method of using the composition” (SOUTH CHINA AGRICULTURAL UNIVERSITY, priority 2017, dated 2022).
Where two headings read alike, the source gives them in different places.

What was measured:
Type in all cases: in vivo
Plutella xylostella = assay: whole plant or invertebrate; conditions: Plutella xylostella, read-out: Plutella xylostella Mortality (%) 500 ppm
Summary of the method: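 Cabbage leaf discs dipped 5 s in compound at 500 ppm (0.05% Tween-80 aqueous), air-dried, fed to about 35 2nd-instar larvae at 28° C., triplicate. Dead larvae counted after 24 h; mortality (%) corrected against Tween-80 control.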

Solenopsis invicta = assay: whole plant or invertebrate; conditions: Solenopsis invicta, water test tube poison-feeding
Summary of the method: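 Fire ants fed compound by water test-tube poison-feeding at 100 ppm in aqueous 0.05% Tween-80/5% honey (from 10 g/L DMSO stock), kept at 25 °C. Live and dead ants counted at 24 and 72 h; mortality (%) calculated relative to live ants in the untreated control.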

Bombyx mori L. = assay: Toxicity test on 2nd-instar larvae of Bombyx mori L., leaf immersion feeding method; conditions: 1000 ppm, 24 hours
Summary of the method: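 Second-instar silkworm larvae (~35 per vessel, 3 replicates) fed mulberry leaves dipped 5 s in 1000 ppm compound (0.05% Tween-80; DMSO stock diluted), held at 25 °C. Deaths counted after 24 hours; mortality % corrected against Tween-80 control survivors.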

Spodoptera exigua = assay: whole plant or invertebrate; conditions: Spodoptera exigua, 24 h, read-out: Spodoptera exigua Mortality (%) 500 ppm
Summary of the method: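 Cabbage leaf discs dipped 5 s in 500 ppm compound (0.05% Tween-80 aqueous), air-dried, fed to about 35 2nd-instar larvae at 28° C, three replicates. Deaths counted at 24 h; mortality corrected against Tween-80 control.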

Aphis craccivora = assay: whole plant or invertebrate; conditions: Aphis craccivora, 24 h, read-out: Aphis craccivora Mortality (%) 500 ppm
Summary of the method: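 Wingless adults feeding on bean sprouts were dipped with the sprouts for 5 s in 500 ppm compound in aqueous 0.05% Tween-80, air-dried, then held at 23° C. Dead aphids counted after 24 h, triplicate, with 0.05% Tween-80 as control. Mortality (%) = (control live − treated live)/control live × 100.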

Apis cernan = assay: Toxicity test on adult worker bees of Apis cernan, small beaker method; conditions: 500 ppm, 48 hours
Summary of the method: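 Same-size adult Apis cernan workers, collected the test morning, exposed in groups of 15 to cotton soaked with 500 ppm test liquid (small beaker method). Kept sealed in a dark climate box; live and dead bees counted after 48 h.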

[1] = 24 h, read-out: Solenopsis invicta Mortality (%) 100 ppm 24 h, 100 ppm, 24 h
[2] = 72 h, read-out: Solenopsis invicta Mortality (%) 100 ppm 72 h, 100 ppm, 72 h

SMILES | mortality at 500 ppm (Plutella xylostella) [%] | mortality at 100 ppm (Solenopsis invicta; [1]) [%] | mortality at 100 ppm (Solenopsis invicta; [2]) [%] | Toxicity determination Bombyx mori L. Mortality (%) (Bombyx mori L.) | mortality at 500 ppm (Spodoptera exigua) [%] | mortality at 500 ppm (Aphis craccivora) [%] | Toxicity determination Apis cernan Mortality (%) (Apis cernan)
C=CC1Nc2cc(C#N)nn2-c2c(Cl)cc(C(F)(F)F)cc21 (centres unmarked) [Compound C4] | 86 | 20 | 87 | 3 | 76 | 100 | 0
C=CC1(CCl)Nc2c(-c3ccccc3C(F)(F)F)c(C#N)nn2-c2c(Cl)cc(C(F)(F)F)cc21 (centres unmarked) [Compound C9] | 100 | 39 | 100 | 8 | 100 | 100 | 9
C=CC1(CCl)Nc2c(-c3cc(C)oc3C)c(C#N)nn2-c2c(Cl)cc(C(F)(F)F)cc21 (centres unmarked) [Compound C10] | 100 | 27 | 100 | 10 | 85 | 100 | 9
C=CC1(CCl)Nc2c([S+]([O-])C(F)(F)F)c(C#N)nn2-c2c(Cl)cc(C(F)(F)F)cc21 (centres unmarked) [Compound C13] | 100 | 32 | 100 | 12 | 100 | 100 | 10
C=CC1(CC(F)(F)F)Nc2c([S+]([O-])C(F)(F)F)c(C#N)nn2-c2c(Cl)cc(C(F)(F)F)cc21 (centres unmarked) [Compound C14] | 100 | 30 | 100 | 10 | 100 | 100 | 10
C=CC1(C(F)(F)F)Nc2c([S+]([O-])C(F)(F)F)c(C#N)nn2-c2c(Cl)cc(C(F)(F)F)cc21 (centres unmarked) [Compound C15] | 89 | 29 | 90 | 8 | 100 | 100 | 7
C=CC1(CCl)Nc2c([S+](C)[O-])c(C#N)nn2-c2c(Cl)cc(C(F)(F)F)cc21 (centres unmarked) [Compound C18] | 90 | 20 | 70 | 6 | 86 | 98 | 5
C=CC1(CC#N)Nc2c([S+]([O-])C(F)(F)F)c(C#N)nn2-c2c(Cl)cc(C(F)(F)F)cc21 (centres unmarked) [Compound C20] | 100 | 28 | 99 | 8 | 100 | 100 | 10
N#CCC1(CO)Nc2c([S+]([O-])C(F)(F)F)c(C#N)nn2-c2c(Cl)cc(C(F)(F)F)cc21 (centres unmarked) [Compound C24] | 100 | 36 | 100 | 11 | 100 | 100 | 10
CC[S+]([O-])c1c(C#N)nn2c1NC(CO)(CC#N)c1cc(C(F)(F)F)cc(Cl)c1-2 (centres unmarked) [Compound C25] | 92 | 25 | 71 | 3 | 97 | 86 | 0
C[S+]([O-])c1c(C#N)nn2c1NC(CO)(CC#N)c1cc(C(F)(F)F)cc(Cl)c1-2 (centres unmarked) [Compound C26] | 89 | 20 | 80 | 4 | 90 | 100 | 4
CN(C)CC1(CC#N)Nc2c([S+]([O-])C(F)(F)F)c(C#N)nn2-c2c(Cl)cc(C(F)(F)F)cc21 (centres unmarked) [Compound C29] | 100 | 30 | 100 | 0 | 93 | 100 | 4
N#CCC1(C(=O)O)Nc2c([S+]([O-])C(F)(F)F)c(C#N)nn2-c2c(Cl)cc(C(F)(F)F)cc21 (centres unmarked) [Compound C30] | 100 | 24 | 100 | 0 | 90 | 92 | 0
COC(=O)C1(CC#N)Nc2c([S+]([O-])C(F)(F)F)c(C#N)nn2-c2c(Cl)cc(C(F)(F)F)cc21 (centres unmarked) [Compound C31] | 100 | 34 | 100 | 3 | 100 | 100 | 8
N#CCC1(C(N)=O)Nc2c([S+]([O-])C(F)(F)F)c(C#N)nn2-c2c(Cl)cc(C(F)(F)F)cc21 (centres unmarked) [Compound C32] | 100 | 25 | 100 | 6 | 90 | 95 | 9
CNC(=O)C1(CC(=O)OC)Nc2c([S+]([O-])C(F)(F)F)c(C#N)nn2-c2c(Cl)cc(C(F)(F)F)cc21 (centres unmarked) [Compound C35] | 100 | 38 | 100 | 4 | 100 | 100 | 4
N#Cc1nn2c(c1[S+]([O-])C(F)(F)F)NC(CC(=O)O)(C(=O)O)c1cc(C(F)(F)F)cc(Cl)c1-2 (centres unmarked) [Compound C36] | 90 | 10 | 90 | 2 | 90 | 100 | 3
COC(=O)CC1(C(=O)OC)Nc2c([S+]([O-])C(F)(F)F)c(C#N)nn2-c2c(Cl)cc(C(F)(F)F)cc21 (centres unmarked) [Compound C37] | 100 | 20 | 100 | 6 | 100 | 100 | 8
N#Cc1nn2c(c1[S+]([O-])C(F)(F)F)NC(CC(N)=O)(C(N)=O)c1cc(C(F)(F)F)cc(Cl)c1-2 (centres unmarked) [Compound C38] | 100 | 25 | 90 | 4 | 90 | 100 | 0
COC(=O)CC1(C(=O)OC)c2cc(C(F)(F)F)cc(Cl)c2-n2nc(C#N)c([S+]([O-])C(F)(F)F)c2N1C(C)=O (centres unmarked) [Compound C40] | 100 | 28 | 90 | 4 | 95 | 100 | 4
CC(=O)c1nn2c(c1[S+](C)[O-])NC(CC#N)(C(=O)O)c1cc(C(F)(F)F)cc(Cl)c1-2 (centres unmarked) [Compound C43] | 86 | 18 | 80 | 0 | 89 | 95 | 4
CNC(=O)C1(CC#N)Nc2c([S+](C)[O-])c(C(C)=O)nn2-c2c(Cl)cc(C(F)(F)F)cc21 (centres unmarked) [Compound C45] | 93 | 25 | 71 | 6 | 97 | 86 | 3
CNC(=O)C1(CC(=O)OC)Nc2c([S+](C)[O-])c(C(C)=O)nn2-c2c(Cl)cc(C(F)(F)F)cc21 (centres unmarked) [Compound C46] | 89 | 21 | 80 | 5 | 91 | 90 | 3
